From US7932270B2 (Cytokinetics, Inc., priority 2006, dated 2011) come the findings set out here.

The target in this assay is T1, chicken gizzard smooth muscle myosin subfragment-1 chemically crosslinked to cardiac or skeletal actin (Gallus gallus, UniProt P10587).
T1 construct: chicken gizzard smooth muscle myosin subfragment-1; from tissue; host or cells: chicken gizzard
T1 sequence (P02607 2-151): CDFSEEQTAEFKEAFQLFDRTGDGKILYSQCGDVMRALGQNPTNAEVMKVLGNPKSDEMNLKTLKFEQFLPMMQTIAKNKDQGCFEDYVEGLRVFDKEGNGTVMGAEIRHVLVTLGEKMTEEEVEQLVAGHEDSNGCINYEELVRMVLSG
T1 sequence (P10587 84-789): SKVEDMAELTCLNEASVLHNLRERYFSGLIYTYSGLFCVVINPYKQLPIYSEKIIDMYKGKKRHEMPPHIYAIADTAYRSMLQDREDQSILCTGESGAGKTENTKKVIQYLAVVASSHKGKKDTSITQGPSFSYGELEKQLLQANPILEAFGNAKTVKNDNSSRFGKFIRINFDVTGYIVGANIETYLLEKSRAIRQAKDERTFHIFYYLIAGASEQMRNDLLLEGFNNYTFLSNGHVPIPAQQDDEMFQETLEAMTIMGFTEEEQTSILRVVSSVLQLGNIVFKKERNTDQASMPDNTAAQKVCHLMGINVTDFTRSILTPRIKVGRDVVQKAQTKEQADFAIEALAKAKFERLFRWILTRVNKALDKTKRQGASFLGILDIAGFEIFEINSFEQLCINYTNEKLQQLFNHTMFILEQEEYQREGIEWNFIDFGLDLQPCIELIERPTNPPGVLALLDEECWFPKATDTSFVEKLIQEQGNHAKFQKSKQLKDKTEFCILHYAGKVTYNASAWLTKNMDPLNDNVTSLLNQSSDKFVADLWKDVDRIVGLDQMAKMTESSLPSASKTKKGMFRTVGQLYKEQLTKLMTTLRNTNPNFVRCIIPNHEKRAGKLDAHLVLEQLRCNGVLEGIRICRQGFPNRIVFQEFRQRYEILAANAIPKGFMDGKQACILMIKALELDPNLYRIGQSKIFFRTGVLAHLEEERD
Kind of assay: Smooth muscle myosin ATPase dose response assay (pyruvate kinase/horseradish peroxidase/pyruvate oxidase-coupled, amplex red fluorescence). It counts as biochemical. The following applies: read-out: IC50 Arithmetic Mean. Here is the method: In Vitro Model of Dose Dependent Smooth Muscle Myosin ATPase Modulation
Screening assays were performed using a pyruvate kinase and lactate dehydrogenase-coupled ATPase assay containing the following reagents: Potassium PIPES (50 mM), MgCl2 (3 mM), KCl (100 mM), ATP (0.15 mM), DTT (1 mM), BSA (0.1 mg/ml), NADH (0.5 mM), PEP (1.5 mM), pyruvate kinase (4 U/ml), lactate dehydrogenase (8 U/ml), and antifoam (50 ppm) (concentrations expressed are final assay concentrations). The pH was adjusted to 6.80 at 22° C. by addition of potassium hydroxide. Lead optimization assays were performed with a more sensitive pyruvate kinase/horseradish peroxidase/pyruvate oxidase-coupled ATPase assay containing the following reagents: Potassium PIPES (12 mM), MgCl2 (2 mM), KCl (100 mM), ATP (0.15 mM), BSA (0.05 mg/ml), potassium phosphate (2 mM), amplex red (0.1 mM), PEP (0.1 mM), pyruvate kinase (4 U/ml), horseradish peroxidase (0.5 U/ml), pyruvate oxidase (0.5 U/ml), and antifoam (50 ppm) (concentrations expressed are final assay concentrations). The pH was adjusted to 7.00 at 22° C. by addition of potassium hydroxide.
The protein components specific to this assay are chicken gizzard smooth muscle myosin subfragment-1 that has been chemically crosslinked to either cardiac or skeletal actin using an excess of 1-Ethyl-3-[3-dimethylaminopropyl]carbodiimide hydrochloride and N-hydroxysuccinimide. The exact concentration of the crosslinked smooth muscle myosin in the assay is determined empirically, by titration to achieve a desired rate of ATP hydrolysis. The concentration varies between protein preparations due to variations in the fraction of active molecules in each preparation.
Compound dose response assays are performed by first preparing a dilution series of test compound, each with an assay mixture containing potassium PIPES, MgCl2, KCl, ATP, BSA, potassium phosphate, amplex red, PEP, crosslinked smooth muscle actomyosin (subfragment-1), antifoam, and water. The assay is started by adding an equal volume of solution containing potassium Pipes, MgCl2, KCl, BSA, potassium phosphate, pyruvate kinase, horseradish peroxidase, pyruvate oxidase, antifoam, and water. ATP hydrolysis is monitored by measuring the fluorescence of amplex red (excitation at 480 nm, emission at 615 nm). The resulting dose response curve is fit by the 4 parameter equation y=Bottom+((Top-Bottom)/(1+((IC50/X)^Hill))). The IC50 is defined as the concentration at which ATPase activity is midway between the top and bottom of the dose response curve.
As to `N#Cc1ccccc1-c1ccc(C(=O)NC[C@H]2CCCCN2C(=O)OCCCl)c(NCCc2cccc(F)c2)n1` [2-chloroethyl (2R)-2-{[(6-(2-cyanophenyl)-2-{[2-(3-fluorophenyl)ethyl]amino}(3-pyridyl))carbonylamino]methyl}piperidinecarboxylate], the IC50 turned out to be 2.69 µM.
Under `NC(=O)CNCC(O)c1ccc(-c2ccccc2)nc1NCCc1cccc(F)c1` (stereo not drawn) [2-{[2-(2-{[2-(3-fluorophenyl)ethyl]amino}-6-phenyl(3-pyridyl))-2-hydroxyethyl]amino}acetamide] stands 51.6 µM.
Under `CS(=O)(=O)NCC1CCCCN1C(=O)c1ccc(-c2ccccc2)nc1NCCc1ccccn1` (stereo not drawn) [2-{[(methylsulfonyl)amino]methyl}piperidyl 6-phenyl-2-[(2-(2-pyridyl)ethyl)amino](3-pyridyl) ketone] stands 22.2 µM; under `NC(=O)c1cccc(CCNc2nc(-c3ccccc3)ccc2C(=O)NCc2cccnc2)c1` [3-[2-({6-phenyl-3-[N-(3-pyridylmethyl)carbamoyl]-2-pyridyl}amino)ethyl]benzamide], 11.5 µM.
Under `O=C(O)c1cccc(CCNc2nc(-c3ccccc3)ccc2C(=O)NCc2cccnc2)c1` [3-[2-({6-phenyl-3-[N-(3-pyridylmethyl)carbamoyl]-2-pyridyl}amino)ethyl]benzoic acid] stands 21.9 µM.
`CNC(=O)CCNC(=O)c1ccc(-c2ccccc2C#N)nc1NCCc1cccc(F)c1` [3-[(6-(2-cyanophenyl)-2-{[2-(3-fluorophenyl)ethyl]amino}(3-pyridyl))carbonylamino]-N-methylpropanamide]: the IC50 was found to be 0.34 µM.
Next, `N#Cc1ccccc1-c1ccc(C(=O)NC2CCC(C(N)=O)C2)c(NCCc2cccc(F)c2)n1` (stereo not drawn) [3-[(6-(2-cyanophenyl)-2-{[2-(3-fluorophenyl)ethyl]amino}-3-pyridyl)carbonylamino]cyclopentanecarboxamide]: 11.6 µM; `N#Cc1ccccc1-c1ccc(C(=O)NCC(CN)C(=O)NCCN)c(NCCc2cccc(F)c2)n1` (stereo not drawn) [3-amino-N-(2-aminoethyl)-2-{[(6-(2-cyanophenyl)-2-{[2-(3-fluorophenyl)ethyl]amino}(3-pyridyl))carbonylamino]methyl}propanamide]: 13.7 µM; `CN(CCNC(=O)c1ccc(-c2ccccc2C#N)nc1NCCc1cccc(F)c1)C(=O)CCN` [3-amino-N-{2-[(6-(2-cyanophenyl)-2-{[2-(3-fluorophenyl)ethyl]amino}(3-pyridyl))carbonylamino]ethyl}-N-methylpropanamide]: 1.78 µM.
Under `N#Cc1ccccc1-c1ccc(C(=O)NCCNC(=O)CCN)c(NCCc2cccc(F)c2)n1` [3-amino-N-{2-[(6-(2-cyanophenyl)-2-{[2-(3-fluorophenyl)ethyl]amino}(3-pyridyl))carbonylamino]ethyl}propanamide] stands 4.32 µM.
Under `N#Cc1ccccc1-c1ccc(C(=O)NCC(=O)NCCC(=O)O)c(NCCc2cccc(F)c2)n1` [3-{2-[(6-(2-cyanophenyl)-2-{[2-(3-fluorophenyl)ethyl]amino}-3-pyridyl)carbonylamino]acetylamino}propanoic acid] stands 9.67 µM.
Consider `CN(C)C(=O)CCNc1nc(-c2ccccc2C#N)ccc1C(=O)NC[C@H]1CCCN1C(=O)CCCN` [3-{[3-(N-{[(2R)-1-(4-aminobutanoyl)pyrrolidin-2-yl]methyl}carbamoyl)-6-(2-cyanophenyl)(2-pyridyl)]amino}-N,N-dimethylpropanamide], for which the IC50 was found to be 3.56 µM.
Next, `CNC(=O)CCCNC(=O)c1ccc(-c2ccccc2C#N)nc1NCCc1cccc(F)c1` [4-[(6-(2-cyanophenyl)-2-{[2-(3-fluorophenyl)ethyl]amino}(3-pyridyl))carbonylamino]-N-methylbutanamide]: 2.96 µM; `N#Cc1ccccc1-c1ccc(C(=O)NCCCC(=O)O)c(NCCc2cccc(F)c2)n1` [4-[(6-(2-cyanophenyl)-2-{[2-(3-fluorophenyl)ethyl]amino}-3-pyridyl)carbonylamino]butanoic acid]: 0.627 µM.
For `CN(CCNC(=O)c1ccc(-c2ccccc2C#N)nc1NCCc1cccc(F)c1)C(=O)CCCNC(=O)OC(C)(C)C` [4-[(tert-butoxy)carbonylamino]-N-{2-[(6-(2-cyanophenyl)-2-{[2-(3-fluorophenyl)ethyl]amino}(3-pyridyl))carbonylamino]ethyl}-N-methylbutanamide], the IC50 came to 3.88 µM.
Next, `CN(CCNC(=O)c1ccc(-c2ccccc2C#N)nc1NCCc1cccc(F)c1)C(=O)CCCN` [4-amino-N-{2-[(6-(2-cyanophenyl)-2-{[2-(3-fluorophenyl)ethyl]amino}(3-pyridyl))carbonylamino]ethyl}-N-methylbutanamide]: 1.2 µM; `N#Cc1ccccc1-c1ccc(C(=O)NCCNC(=O)CCCN)c(NCCc2cccc(F)c2)n1` [4-amino-N-{2-[(6-(2-cyanophenyl)-2-{[2-(3-fluorophenyl)ethyl]amino}(3-pyridyl))carbonylamino]ethyl}butanamide]: 1.27 µM.
Next, `NC(=O)c1ccc(-c2ccc(C(=O)NCc3cccnc3)c(NCCc3ccccn3)n2)cc1` [4-{6-[(2-(2-pyridyl)ethyl)amino]-5-[N-(3-pyridylmethyl)carbamoyl]-2-pyridyl}benzamide]: 2.54 µM; `O=C(O)c1ccc(-c2ccc(C(=O)NCc3cccnc3)c(NCCc3ccccn3)n2)cc1` [4-{6-[(2-(2-pyridyl)ethyl)amino]-5-[N-(3-pyridylmethyl)carbamoyl]-2-pyridyl}benzoic acid]: 18.3 µM.
Next, `CC1CN(C(=O)c2cc(F)c(-c3cnn(C)c3)nc2NCCc2cccc(F)c2)C1` [5-fluoro-2-{[2-(3-fluorophenyl)ethyl]amino}-6-(1-methylpyrazol-4-yl)(3-pyridyl) 3-methylazetidinyl ketone]: 10.5 µM; `N#Cc1ccccc1-c1ccc(C(=O)NCc2cccc(C(N)=O)n2)c(NCCc2cccc(F)c2)n1` [6-{[(6-(2-cyanophenyl)-2-{[2-(3-fluorophenyl)ethyl]amino}-3-pyridyl)carbonylamino]methyl}pyridine-2-carboxamide]: 0.06 µM; `N#Cc1ccccc1-c1ccc(C(=O)NCc2cccc(C(=O)O)n2)c(NCCc2cccc(F)c2)n1` [6-{[(6-(2-cyanophenyl)-2-{[2-(3-fluorophenyl)ethyl]amino}-3-pyridyl)carbonylamino]methyl}pyridine-2-carboxylic acid]: 0.047 µM.
Take `CN1CCC(CCNc2nc(-c3ccccc3)ccc2C(=O)NCc2cccnc2)CC1` [(2-{[2-(1-methyl(4-piperidyl))ethyl]amino}-6-phenyl(3-pyridyl))-N-(3-pyridylmethyl)carboxamide]: the IC50 came to 20.1 µM.
Take `Cn1cnc(CCNc2nc(-c3ccccc3)ccc2C(=O)NCc2cccnc2)c1` [(2-{[2-(1-methylimidazol-4-yl)ethyl]amino}-6-phenyl(3-pyridyl))-N-(3-pyridylmethyl)carboxamide]: the IC50 stood at 32.2 µM.
As for `N#Cc1ccccc1-c1ccc(C(=O)NCc2cccnc2)c(NCCc2cccc(F)c2F)n1` [(2-{[2-(2,3-difluorophenyl)ethyl]amino}-6-(2-cyanophenyl)(3-pyridyl))-N-(3-pyridylmethyl)carboxamide], the IC50 is 0.022 µM.
Next, `O=C(NCc1cccnc1)c1ccc(-c2ccccc2)nc1NCCc1cc(F)ccc1F` [(2-{[2-(2,5-difluorophenyl)ethyl]amino}-6-phenyl(3-pyridyl))-N-(3-pyridylmethyl)carboxamide]: 0.079 µM.
Next, `O=C(NCc1cccnc1)c1ccc(-c2ccccc2)nc1NCCc1c(F)cccc1F` [(2-{[2-(2,6-difluorophenyl)ethyl]amino}-6-phenyl(3-pyridyl))-N-(3-pyridylmethyl)carboxamide]: 0.288 µM.
Next, `N#Cc1ccccc1-c1ccc(C(=O)NCc2cccnc2)c(NCCc2ccccc2Cl)n1` [(2-{[2-(2-chlorophenyl)ethyl]amino}-6-(2-cyanophenyl)(3-pyridyl))-N-(3-pyridylmethyl)carboxamide]: 0.028 µM; `O=C(NCc1cccnc1)c1ccc(-c2ccccc2)nc1NCCc1ccccc1Cl` [(2-{[2-(2-chlorophenyl)ethyl]amino}-6-phenyl(3-pyridyl))-N-(3-pyridylmethyl)carboxamide]: 0.16 µM; `O=C(NCc1cccnc1)c1ccc(-c2ccccc2)nc1NCCc1ccccc1F` [(2-{[2-(2-fluorophenyl)ethyl]amino}-6-phenyl(3-pyridyl))-N-(3-pyridylmethyl)carboxamide]: 0.107 µM.
